Source: BindingDB's records for PubMed 36325400 (Prince Sattam Bin Abdulaziz University, 2022)

Molecular target: Phospholipase A2 group V (Homo sapiens) (UniProt P39877)
Test: Inhibition of recombinant human sPLA2-V

Chain of Phospholipase A2 group V (Homo sapiens) (P39877 whole entry, looked up): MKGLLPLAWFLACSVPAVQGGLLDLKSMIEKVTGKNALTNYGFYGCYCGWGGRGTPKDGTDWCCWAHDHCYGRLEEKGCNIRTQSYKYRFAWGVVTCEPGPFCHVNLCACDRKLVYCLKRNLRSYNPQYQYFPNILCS

| Compound | IC50 |
| --- | --- |
| COc1ccnc(Nc2n[nH]c(N)c2C#N)c1 | 3100 nM |
| COc1ccnc(Nc2nn3c(SC)c(C#N)c(N)nc3c2C#N)c1 | 2600 nM |
| COc1ccnc(Nc2nn3c(SC)c(C#N)c(O)nc3c2C#N)c1 | 1000 nM |
| COc1ccnc(Nc2nn3c(C)cc(C)nc3c2C#N)c1 | 3200 nM |
| CCOc1cc(C)nc2c(C#N)c(Nc3cc(OC)ccn3)nn12 | 1700 nM |
| CCOc1cc(N)n2nc(Nc3cc(OC)ccn3)c(C#N)c2n1 | 3200 nM |
| C[C@@H]1C[C@H]2[C@@H]3CCC4=CC(=O)C=C[C@]4(C)[C@@]3(F)[C@@H](O)C[C@]2(C)[C@@]1(O)C(=O)CO [dexamethasone (tetramethyl-rhodamine conjugated )] | 590 nM |
